Holding throughout (type): biochemical
Assay [1] deals with T1, μ-opioid receptor (Homo sapiens (Human), UniProt P35372). The assay is described as follows: μ-opioid receptor [35S]GTPγS functional assay, U-2 OS cells. Conditions: for Emax: relative to DAMGO, U-2 OS cells. The protocol:
(§1) μ-Opioid Receptor Functional Assay Procedures: [^35S]GTPγS functional assays were conducted using freshly thawed μ-receptor membranes prepared in-house from a cell line expressing recombinant μ opioid receptor in a HEK-293, CHO or U-2 OS cell background, or purchased from a commercial source (Perkin Elmer, Shelton, Conn.; or DiscovRx, Fremont, Calif.). Assay reactions were prepared by sequentially adding the following reagents to binding buffer (100 mM NaCl, 10 mM MgCl2, 20 mM HEPES, pH 7.4) on ice (final concentrations indicated): membrane protein (0.026 mg/mL), saponin ([…]), GDP ([…]) and [^35S]GTPγS (0.20 nM; Perkin Elmer, Shelton, Conn.). The prepared membrane solution (190 μl/well) was transferred to 96-shallow well polypropylene plates containing 10 μl of 20× concentrated stock solutions of the agonist [D-Ala^2, N-methyl-Phe^4 Gly-ol^5]-enkephalin (DAMGO) prepared in dimethyl sulfoxide (DMSO). Plates were incubated for 30 min at about 25° C. with shaking. Reactions were terminated by rapid filtration onto 96-well Unifilter GF/B filter plates (Perkin Elmer, Shelton, Conn.) using a 96-well tissue harvester (Perkin Elmer, Shelton, Conn.) followed by three filtration washes with 200 μl of ice-cold wash buffer (10 mM NaH2PO4, 10 mM Na2HPO4, pH 7.4). Filter plates were subsequently dried at 50° C. for 2-3 hours. BetaScint scintillation cocktail (Perkin Elmer, Shelton, Conn.) was added (50 μl/well) and plates were counted using a Packard Top-Count for 1 min/well. Data were analyzed using the sigmoidal dose-response curve fitting functions in GraphPad PRISM v. 3.0, or an in-house function for non-linear, sigmoidal dose-response curve-fitting.
(§2) μ-Opioid Receptor Functional Data: μ GTP EC50 is the concentration of a compound providing 50% of the maximal response for the compound at a μ-opioid receptor.
(§3) μ GTP Emax (%) is the maximal effect elicited by a compound relative to the effect elicited by DAMGO, a standard μ agonist. Generally, the μ GTP Emax (%) value measures the efficacy of a compound to treat or prevent pain or other Conditions.
(§4) The following TABLE 3 provides results on the activity response of certain Compounds of the Invention at the μ- and κ-opioid receptors determined as described above using U-2 OS cells.
(GTPγS resists hydrolysis and so accumulates on activated G proteins.)

The target in the next assay is κ-opioid receptor (Homo sapiens (Human), UniProt P41145). The assay is described as follows: κ-opioid receptor [35S]GTPγS functional assay, U-2 OS cells. The following applies: for Emax: relative to U69,593, U-2 OS cells. The protocol: κ-Opioid Receptor Functional Assay Procedures: Functional [^35S]GTPγS binding assays were conducted as follows. κ opioid receptor membrane solution was prepared by sequentially adding final concentrations of 0.026 μg/μl κ membrane protein (in-house), 10 μg/mL saponin, 3 μM GDP and 0.20 nM [^35S]GTPγS to binding buffer (100 mM NaCl, 10 mM MgCl2, 20 mM HEPES, pH 7.4) on ice. The prepared membrane solution (190 μl/well) was transferred to 96-shallow well polypropylene plates containing 10 μl of 20× concentrated stock solutions of agonist prepared in DMSO. Plates were incubated for 30 min at a temperature of about 25° C. with shaking. Reactions were terminated by rapid filtration onto 96-well Unifilter GF/B filter plates (Perkin Elmer, Shelton, Conn.) using a 96-well tissue harvester (Packard) and followed by three filtration washes with 200 μl ice-cold binding buffer (10 mM NaH2PO4, 10 mM Na2HPO4, pH 7.4). Filter plates were subsequently dried at 50° C. for 2-3 hours. Fifty μl/well scintillation cocktail (Perkin Elmer, Shelton, Conn.) was added and plates were counted in a Packard Top-Count for 1 min/well.
κ-Opioid Receptor Functional Data: κ GTP EC50 is the concentration of a compound providing 50% of the maximal response for the compound at a κ receptor.
κ GTP Emax (%) is the maximal effect elicited by a compound relative to the effect elicited by U69,593.
as §4

For assay [2], the target named is T1, μ-opioid receptor. The assay is described as follows: μ-opioid receptor [35S]GTPγS functional assay, HEK-293 or CHO cells. The protocol:
as §1, §2, §3
In TABLE 2, activity response of certain Compounds of the Invention to the μ-, δ- and κ-opioid receptors was determined as described above for functional assays using HEK-293 or CHO cells.

The mark [3] stands for this setting: relative to DAMGO, HEK-293 or CHO cells.

A word on the EC50: it is the concentration giving half of the maximal effect. In general, Emax refers to the greatest response seen or fitted, relative to the assay's reference. Turning to `COc1ccc2c(c1)[C@]13CCN[C@H](C2)[C@]1(O)Cc1cc(C(N)=O)c(=O)[nH]c1C3` [Compound 32, (6R,6aS,12aR)-6a-hydroxy-2-methoxy-10-oxo-6,6a,7,10,11,12-hexahydro-5H-6,12a-(epiminoethano)naphtho[2,1-g]quinoline-9-carboxamide], the EC50 on μ-opioid receptor [1] and at κ-opioid receptor was > 20 µM in each case. Besides, the Emax came out at 17.5% at μ-opioid receptor [1] and 6.7 ± 6.56% at κ-opioid receptor.

With `NC(=O)c1cc2c([nH]c1=O)C[C@]13CCN(CC(F)(F)F)[C@H](Cc4ccc(O)cc41)[C@]3(O)C2` [Compound 34, (6R,6aS,12aR)-2,6a-dihydroxy-10-oxo-15-(2,2,2-trifluoroethyl)-6,6a,7,10,11,12-hexahydro-5H-6,12a-(epiminoethano)naphtho[2,1-g]quinoline-9-carboxamide], the EC50 on μ-opioid receptor [1] and on κ-opioid receptor was > 20 µM each time. Besides, the Emax was 8.5% at μ-opioid receptor [1] and 0% at κ-opioid receptor.

In the case of `NC(=O)c1cc2c([nH]c1=O)C[C@]13CCN(CCF)[C@H](Cc4ccc(O)cc41)[C@]3(O)C2` [Compound 35, (6R,6aS,12aR)-15-(2-fluoroethyl)-2,6a-dihydroxy-10-oxo-6,6a,7,10,11,12-hexahydro-5H-6,12a-(epiminoethano)naphtho[2,1-g]quinoline-9-carboxamide], on μ-opioid receptor [1], the EC50 was > 20 µM and the Emax amounted to 2.5%. For the same compound, on κ-opioid receptor, the response was half-maximal at 0.0937 ± 0.0277 µM (EC50) and the Emax came out at 66 ± 1.53%.

Regarding `CN1CC[C@]23Cc4c(cc(C(N)=O)c(=O)n4C)C[C@@]2(O)[C@H]1Cc1ccc(O)cc13` [Compound 39, (6R,6aS,12aR)-2,6a-dihydroxy-11,15-dimethyl-10-oxo-6,6a,7,10,11,12-hexahydro-5H-6,12a-(epiminoethano)naphtho[2,1-g]quinoline-9-carboxamide], on μ-opioid receptor [1], the EC50 amounted to 0.164 ± 0.059 µM and the Emax was 33.7 ± 8.01%. At κ-opioid receptor, a half-maximal effect (EC50) was put at 0.6416 ± 0.00349 µM and the Emax is 54 ± 3.61%.

On to `COc1ccc2c(c1)[C@]13CCN(C)[C@H](C2)[C@]1(O)Cc1cc(C(=O)O)c(=O)[nH]c1C3` [Compound 40, (6R,6aS,12aR)-6a-hydroxy-2-methoxy-15-methyl-10-oxo-6,6a,7,10,11,12-hexahydro-5H-6,12a-(epiminoethano)naphtho[2,1-g]quinoline-9-carboxylic acid], for which, at μ-opioid receptor [1], it took 13.9 ± 1.63 µM to reach a half-maximal effect (EC50) and the Emax is 72 ± 4.16%. On κ-opioid receptor, the EC50 is > 20 µM and the Emax is 96 ± 1.53%.

`CN1CC[C@]23Cc4[nH]c(=O)c(C(=O)O)cc4C[C@@]2(O)[C@H]1Cc1ccc(O)cc13` [Compound 41, (6R,6aS,12aR)-2,6a-dihydroxy-15-methyl-10-oxo-6,6a,7,10,11,12-hexahydro-5H-6,12a-(epiminoethano)naphtho[2,1-g]quinoline-9-carboxylic acid]: the figures for the EC50 on μ-opioid receptor [1] and on κ-opioid receptor were 0.111 ± 0.0089 µM and 0.568 ± 0.0333 µM, respectively. Further, the values for the Emax at μ-opioid receptor [1] and at κ-opioid receptor were 58.2 ± 2.32% and 70 ± 4.58%, respectively.

With `CN1CC[C@]23Cc4[nH]c(=O)c(C(=O)NCC5CCCCC5)cc4C[C@@]2(O)[C@H]1Cc1ccc(O)cc13` [Compound 44, (6R,6aS,12aR)—N-(cyclohexylmethyl)-2,6a-dihydroxy-15-methyl-10-oxo-6,6a,7,10,11,12-hexahydro-5H-6,12a-(epiminoethano)naphtho[2,1-g]quinoline-9-carboxamide], the EC50 on μ-opioid receptor [1] is 0.439 ± 0.0274 µM; on κ-opioid receptor, 0.0925 ± 0.0242 µM. The results for the Emax on μ-opioid receptor [1] and at κ-opioid receptor were 88.3 ± 0.88% and 67 ± 1%, respectively.

Turning to `CN1CC[C@]23Cc4[nH]c(=O)c(C(=O)NCc5ccccc5)cc4C[C@@]2(O)[C@H]1Cc1ccc(O)cc13` [Compound 45, (6R,6aS,12aR)—N-benzyl-2,6a-dihydroxy-15-methyl-10-oxo-6,6a,7,10,11,12-hexahydro-5H-6,12a-(epiminoethano)naphtho[2,1-g]quinoline-9-carboxamide], at μ-opioid receptor [1], a half-maximal effect (EC50) was put at 0.306 ± 0.0252 µM and the Emax amounted to 90 ± 1.53%. At κ-opioid receptor, the EC50 came to 0.128 ± 0.00896 µM and the Emax worked out at 94.3 ± 5.61%.

As for `O=C(c1cc2c([nH]c1=O)C[C@]13CCN(CC4CC4)[C@H](Cc4ccc(O)cc41)[C@@H]3C2)N1CCS(=O)(=O)CC1` [Compound 60, (6R,6aR,12aS)-15-(cyclopropylmethyl)-9-(1,1-dioxidothiomorpholine-4-carbonyl)-2-hydroxy-6,6a,7,12-tetrahydro-5H-6,12a-(epiminoethano)naphtho[2,1-g]quinolin-10(11H)-one], the EC50 at μ-opioid receptor [2] was > 20 µM. The Emax on μ-opioid receptor [2] (setting [3]) was -1 ± 1%.

Consider `O=C(N[C@@H]1c2ccccc2C[C@@H]1O)c1cc2c([nH]c1=O)C[C@]13CCN(CC4CC4)[C@H](Cc4ccc(O)cc41)[C@@H]3C2` [Compound 61, (6R,6aR,12aS)-15-(cyclopropylmethyl)-2-hydroxy-N-((1R,2S)-2-hydroxy-2,3-dihydro-1H-inden-1-yl)-10-oxo-6,6a,7,10,11,12-hexahydro-5H-6,12a-(epiminoethano)naphtho[2,1-g]quinoline-9-carboxamide], for which the EC50 on μ-opioid receptor [2] is > 20 µM. Besides, the Emax on μ-opioid receptor [2] (setting [3]) was -1%.

As for `O=C(N[C@H]1c2ccccc2C[C@H]1O)c1cc2c([nH]c1=O)C[C@]13CCN(CC4CC4)[C@H](Cc4ccc(O)cc41)[C@@H]3C2` [Compound 62, (6R,6aR,12aS)-15-(cyclopropylmethyl)-2-hydroxy-N-((1S,2R)-2-hydroxy-2,3-dihydro-1H-inden-1-yl)-10-oxo-6,6a,7,10,11,12-hexahydro-5H-6,12a-(epiminoethano)naphtho[2,1-g]quinoline-9-carboxamide], the EC50 on μ-opioid receptor [2] was > 20 µM. Also, the Emax at μ-opioid receptor [2] (setting [3]) was -1%.

Turning to `CN(C(=O)c1cc2c([nH]c1=O)C[C@]13CCN(CC4CC4)[C@H](Cc4ccc(O)cc41)[C@@H]3C2)C1CCCCC1` [Compound 63, (6R,6aR,12aS)—N-cyclohexyl-15-(cyclopropylmethyl)-2-hydroxy-N-methyl-10-oxo-6,6a,7,10,11,12-hexahydro-5H-6,12a-(epiminoethano)naphtho[2,1-g]quinoline-9-carboxamide], the EC50 at μ-opioid receptor [2] was > 20 µM. Also, the Emax at μ-opioid receptor [2] (setting [3]) is -1%.

For `O=C(c1cc2c([nH]c1=O)C[C@]13CCN(CC4CC4)[C@H](Cc4ccc(O)cc41)[C@@H]3C2)N1Cc2ccccc2C1` [Compound 64, (6R,6aR,12aS)-15-(cyclopropylmethyl)-2-hydroxy-9-(isoindoline-2-carbonyl)-6,6a,7,12-tetrahydro-5H-6,12a-(epiminoethano)naphtho[2,1-g]quinolin-10(11H)-one], on μ-opioid receptor [2], the EC50 was > 20 µM. Besides, at μ-opioid receptor [2] (setting [3]), the Emax stood at 3.5%.

Take `O=C(c1cc2c([nH]c1=O)C[C@]13CCN(CC4CC4)[C@H](Cc4ccc(O)cc41)[C@@H]3C2)N1[C@@H]2CC[C@H]1C[C@@H](O)C2` [Compound 65, (6R,6aR,12aS)-15-(cyclopropylmethyl)-2-hydroxy-9-((1R,R,5S)-3-hydroxy-8-azabicyclo[3.2.1]octane-8-carbonyl)-6,6a,7,12-tetrahydro-5H-6,12a-(epiminoethano)naphtho[2,1-g]quinolin-10(11H)-one]: the concentration giving a half-maximal response (EC50) at μ-opioid receptor [2] (GTPγS, HEK-293 or CHO cells, bound given in μM, read-out: μ EC50) is > 20 µM. The “μ Emax (%)” value on μ-opioid receptor [2] (setting [3]) came out at 4.00%.
